# Several values for one entry are separate records, joined by “and”; a condition that tells them apart may be missing. Identical values can stand only once. Like-named read-outs stand apart in the source and are kept apart here.
# Target: P. pacificus complex I (Pristionchus pacificus, UniProt A0A454XZ18+A0A8R1Z3U8+A4UAP3)
# Assay: In vitro complex I activity assay, P. pacificus mitochondria
# Assay type: biochemical
# Protocol: Mitochondria were isolated from the following free-living nematode strains: C. elegans—N2, CB3474, ECA882, ECA917, ECA1075, ECA1080; C. briggsae—AF16; P. pacificus—PS312; and P. hermaphrodita—B178. With the exception of the P. hermaphrodita strain B178, adult worms of each strain were grown in bulk through liquid culture to obtain mitochondria in sufficient quantities. Due to poor growth in liquid media, mixed stage populations of P. hermaphrodita were washed off and collected from NGM plates seeded with OP50. The isolation of mitochondria from all free-living nematode strains followed the protocol previously outlined in Burns et al.[24]. In brief, a 1 L saturated culture of E. coli HB101 was concentrated 20-fold in 50 mL complete S-medium. ~500,000 L1 worms synchronized from an embryo preparation performed the day prior were added to the S-media/HB101 suspension and grown to adulthood over the course of 3.5 days at 20 °C with shaking at 165 rpm. Following growth, worms were collected in 10 ×15 mL conical tubes and washed 7 times in M9 buffer. Worm suspensions were then combined into a single 15 mL conical tube and diluted to a final volume of 15 mL with M9 buffer. 1 mL aliquots of worm suspension were then distributed to 15 × 1.5 mL screw-cap microcentrifuge tubes and were pelleted at 500 g for 1 min. Excess M9 was aspirated without disturbing the worm pellet. 600 μL ice-cold isolate buffer A (250 mM sucrose, 10 mM Tris (pH 7.5), 1 mM EDTA, 1 mM PMSF (freshly prepared)) and 300 μL cold glass beads were then added to each tube. Tubes were incubated on ice for 10 min, and the worms were then lysed by bead beating (6 x 30 s, with 1 min cooling intervals). Tubes containing worm lysate were centrifuged at 1,000 g for 10 min at 4 °C and the supernatant was transferred to 15 new microcentrifuge tubes on ice. The tubes were centrifuged a second time at 1,000 g for 10 min at 4 °C and the supernatant was once again transferred to 15 new microcentrifuge tubes on ice. These tubes were then centrifuged at 16,000 g for 10 min at 4 °C. The resulting mitochondrial pellet was washed twice by re-suspension in 300 μL of ice-cold isolate buffer B (250 mM sucrose, 10 mM Tris (pH 7.5), 1 mM EDTA). Following the final wash, isolation buffer was aspirated from each tube and the pellets were flash-frozen in ethanol/dry ice and stored at −80 °C until needed.
# The enzymatic activities of individual ETC complexes (I-IV) were assessed spectrophotometrically in isolated mitochondria using a Varioskan LUX Multimode plate reader (ThermoFisher Scientific). Mitochondrial pellets previously isolated were thawed on ice and resuspended in ice-cold isolation buffer (250 mM sucrose, 10 mM Tris (pH 7.5), 1 mM EDTA). The BCA assay (Walker, 1994) was used to quantify the protein concentration of mitochondria suspensions; solutions were diluted to a concentration of 0.2 mg/mL for use in all assays. For the complex I assay, mitochondria pellets were freeze-thawed on ice three times to increase enzyme accessibility. […] 20 μL mitochondria suspension was then added/mixed with a pipette to initiate the reaction. Immediately following the addition of mitochondria, absorbance was measured (complex I and II: 600 nm; complex III and IV: 550 nm) in 30 s intervals over 15 min. Enzymatic activity was determined in each reaction by plotting absorbance versus time and calculating the slope of the curve during the initial linear phase of the reaction. […] Percent activity of each complex was calculated by dividing the enzyme-specific activity of each well by the enzyme-specific activity of the corresponding solvent controls.
# Chemical solutions were prepared in complex I assay buffer composed of 25 mM KPi buffer (pH 7.5), 3 mg/mL bovine serum albumin (BSA), 80 μM NADH, 60 μM decylubiquinone, 160 μM DCIP, 2 μM antimycin A and 2 mM KCN. […]
structure (smiles),measurement,setting,value
Cc1nc2ccccc2n1Cc1ccc(Cl)cc1 [STK697993],remaining activity at 0.0001 µM,"P. pacificus mitochondria, 0.0001 µM, Mean, read-out: in vitro complex I activity relative to solvent control",94.6%
same,in vitro complex I activity relative to solvent control,"P. pacificus mitochondria, 0.0001 µM, single replicate",101.484% and 94.523%
same,remaining activity at 0.0001 µM,"P. pacificus mitochondria, 0.0001 µM, single replicate, read-out: in vitro complex I activity relative to solvent control",87.6%
same,remaining activity at 0.0005 µM,"P. pacificus mitochondria, 0.0005 µM, Mean, read-out: in vitro complex I activity relative to solvent control",77.4%
same,in vitro complex I activity relative to solvent control,"P. pacificus mitochondria, 0.0005 µM, single replicate",88.361% and 49.299%
same,remaining activity at 0.001 µM,"P. pacificus mitochondria, 0.001 µM, Mean, read-out: in vitro complex I activity relative to solvent control",107%
same,in vitro complex I activity relative to solvent control,"P. pacificus mitochondria, 0.001 µM, single replicate",104.362% and 121.410% and 94.602%
same,remaining activity at 0.0025 µM,"P. pacificus mitochondria, 0.0025 µM, Mean, read-out: in vitro complex I activity relative to solvent control",102%
same,in vitro complex I activity relative to solvent control,"P. pacificus mitochondria, 0.0025 µM, single replicate",89.591% and 126.458% and 89.566%
same,remaining activity at 0.005 µM,"P. pacificus mitochondria, 0.005 µM, Mean, read-out: in vitro complex I activity relative to solvent control",96.6%
same,in vitro complex I activity relative to solvent control,"P. pacificus mitochondria, 0.005 µM, single replicate",89.435% and 110.953% and 89.424%
same,remaining activity at 0.013 µM,"P. pacificus mitochondria, 0.013 µM, Mean, read-out: in vitro complex I activity relative to solvent control",82.8%
same,in vitro complex I activity relative to solvent control,"P. pacificus mitochondria, 0.013 µM, single replicate",85.370% and 80.753%
same,remaining activity at 0.013 µM,"P. pacificus mitochondria, 0.013 µM, single replicate, read-out: in vitro complex I activity relative to solvent control",82.3%
same,remaining activity at 0.025 µM,"P. pacificus mitochondria, 0.025 µM, Mean, read-out: in vitro complex I activity relative to solvent control",81.8%
same,in vitro complex I activity relative to solvent control,"P. pacificus mitochondria, 0.025 µM, single replicate",78.182% and 98.911% and 68.184%
same,remaining activity at 0.063 µM,"P. pacificus mitochondria, 0.063 µM, Mean, read-out: in vitro complex I activity relative to solvent control",55.6%
same,in vitro complex I activity relative to solvent control,"P. pacificus mitochondria, 0.063 µM, single replicate",59.066% and 53.138%
same,remaining activity at 0.063 µM,"P. pacificus mitochondria, 0.063 µM, single replicate, read-out: in vitro complex I activity relative to solvent control",54.5%
same,remaining activity at 0.125 µM,"P. pacificus mitochondria, 0.125 µM, Mean, read-out: in vitro complex I activity relative to solvent control",36.1%
same,in vitro complex I activity relative to solvent control,"P. pacificus mitochondria, 0.125 µM, single replicate",35.771% and 33.806%
same,remaining activity at 0.125 µM,"P. pacificus mitochondria, 0.125 µM, single replicate, read-out: in vitro complex I activity relative to solvent control",38.7%
same,remaining activity at 0.313 µM,"P. pacificus mitochondria, 0.313 µM, Mean, read-out: in vitro complex I activity relative to solvent control",20.5%
same,in vitro complex I activity relative to solvent control,"P. pacificus mitochondria, 0.313 µM, single replicate",25.713% and 19.065%
same,remaining activity at 0.313 µM,"P. pacificus mitochondria, 0.313 µM, single replicate, read-out: in vitro complex I activity relative to solvent control",16.8%
same,remaining activity at 0.625 µM,"P. pacificus mitochondria, 0.625 µM, Mean, read-out: in vitro complex I activity relative to solvent control",17.3%
same,in vitro complex I activity relative to solvent control,"P. pacificus mitochondria, 0.625 µM, single replicate",22.397% and 7.371% and 22.004%
same,remaining activity at 1.5 µM,"P. pacificus mitochondria, 1.5 µM, Mean, read-out: in vitro complex I activity relative to solvent control",18.5%
same,in vitro complex I activity relative to solvent control,"P. pacificus mitochondria, 1.5 µM, single replicate",23.927% and 2.400% and 29.263%
same,remaining activity at 3 µM,"P. pacificus mitochondria, 3 µM, Mean, read-out: in vitro complex I activity relative to solvent control",15.2%
same,in vitro complex I activity relative to solvent control,"P. pacificus mitochondria, 3 µM, single replicate",21.335% and 0.000% and 24.340%
same,remaining activity at 15 µM,"P. pacificus mitochondria, 15 µM, Mean, read-out: in vitro complex I activity relative to solvent control",7.59%
same,in vitro complex I activity relative to solvent control,"P. pacificus mitochondria, 15 µM, single replicate",11.369% and 0.506% and 10.901%
same,remaining activity at 37.5 µM,"P. pacificus mitochondria, 37.5 µM, Mean, read-out: in vitro complex I activity relative to solvent control",7.5%
same,in vitro complex I activity relative to solvent control,"P. pacificus mitochondria, 37.5 µM, single replicate",6.933% and 4.878% and 10.703%
same,remaining activity at 75 µM,"P. pacificus mitochondria, 75 µM, Mean, read-out: in vitro complex I activity relative to solvent control",4.35%
same,in vitro complex I activity relative to solvent control,"P. pacificus mitochondria, 75 µM, single replicate",3.580% and 5.152%
same,remaining activity at 75 µM,"P. pacificus mitochondria, 75 µM, single replicate, read-out: in vitro complex I activity relative to solvent control",4.33%
same,IC50,purified mitochondria,70 nM

# Reference: article PMC11079024, “Identification of a family of species-selective complex I inhibitors as potential anthelmintics” (Nature Communications, 2024)
